The text below walks through data of patent publication US9878986B2, “Compounds for selective histone deacetylase inhibitors, and pharmaceutical composition comprising the same” (CHONG KUN DANG PHARMACEUTICAL CORP., priority 2013, dated 2018).

The target of one assay is T1, HDAC 6 (Homo sapiens, UniProt Q9UBN7).
T1 sequence (Q9UBN7 1-1215): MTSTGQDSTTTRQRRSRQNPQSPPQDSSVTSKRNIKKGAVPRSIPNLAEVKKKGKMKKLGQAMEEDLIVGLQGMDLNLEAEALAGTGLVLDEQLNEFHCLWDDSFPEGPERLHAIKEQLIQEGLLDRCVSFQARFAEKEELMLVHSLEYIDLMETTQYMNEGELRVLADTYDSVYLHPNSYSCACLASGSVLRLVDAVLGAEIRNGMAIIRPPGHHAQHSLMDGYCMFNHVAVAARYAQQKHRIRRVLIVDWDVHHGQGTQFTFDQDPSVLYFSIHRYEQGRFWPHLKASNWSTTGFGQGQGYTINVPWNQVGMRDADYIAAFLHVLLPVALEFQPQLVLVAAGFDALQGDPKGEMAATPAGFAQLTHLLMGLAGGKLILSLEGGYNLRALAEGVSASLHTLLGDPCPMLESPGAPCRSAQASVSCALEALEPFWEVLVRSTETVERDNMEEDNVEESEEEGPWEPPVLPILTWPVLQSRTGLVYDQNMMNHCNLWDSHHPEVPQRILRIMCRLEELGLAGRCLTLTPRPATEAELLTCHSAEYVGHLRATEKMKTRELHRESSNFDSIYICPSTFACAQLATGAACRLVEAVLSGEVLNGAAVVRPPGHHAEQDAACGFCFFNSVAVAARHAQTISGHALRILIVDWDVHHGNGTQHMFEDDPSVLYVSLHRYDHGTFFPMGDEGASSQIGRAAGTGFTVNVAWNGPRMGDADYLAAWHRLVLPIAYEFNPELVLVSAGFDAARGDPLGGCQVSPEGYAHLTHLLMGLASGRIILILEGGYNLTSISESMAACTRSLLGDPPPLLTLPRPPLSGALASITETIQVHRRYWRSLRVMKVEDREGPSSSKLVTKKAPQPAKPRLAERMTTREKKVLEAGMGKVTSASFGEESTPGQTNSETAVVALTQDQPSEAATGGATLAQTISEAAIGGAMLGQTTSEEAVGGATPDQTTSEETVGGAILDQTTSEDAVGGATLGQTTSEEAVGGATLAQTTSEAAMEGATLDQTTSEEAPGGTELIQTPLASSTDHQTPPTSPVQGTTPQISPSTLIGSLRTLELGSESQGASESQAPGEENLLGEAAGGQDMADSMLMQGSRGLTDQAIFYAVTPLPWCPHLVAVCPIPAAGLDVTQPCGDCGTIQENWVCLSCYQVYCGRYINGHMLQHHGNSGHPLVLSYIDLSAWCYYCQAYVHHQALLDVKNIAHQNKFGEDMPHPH
Briefly: Test of HDAC activities, HDAC6 (fluorimetric). It counts as biochemical. Also on record: purchased Calbiochem 382180. The settings on record: samples at 0.1, 1, 10, 100, 1000 nM; 37° C. 60 minutes; fluorescence Ex 390, Em 460; read-out: HDAC inhibitory activities, HDAC6. A digest of the protocol:
(§1)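 HDAC1 tested at 100, 1000 and 10000 nM; recombinant human HDAC6 at 0.1, 1, 10, 100 and 1000 nM. Reaction 60 min at 37° C, then developer for 30 min at 37° C; fluorescence read at Ex 390/Em 460.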

The target of a further assay is HDAC1 (Homo sapiens, UniProt Q13547). Kind of assay: Test of HDAC activities, HDAC1 Fluorimetric Drug Discovery Assay Kit. The format is biochemical. Details: purchased Enzolifesciences BML-AK511. The settings on record: samples at 100, 1000, 10000 nM; 37° C. 60 minutes; fluorescence Ex 390, Em 460; read-out: HDAC inhibitory activities, HDAC1. Summed up:
as §1

SMILES strings stand for the structures. Counter-ions that a name gives are not always drawn.

HDAC1, sequence (Q13547 whole entry): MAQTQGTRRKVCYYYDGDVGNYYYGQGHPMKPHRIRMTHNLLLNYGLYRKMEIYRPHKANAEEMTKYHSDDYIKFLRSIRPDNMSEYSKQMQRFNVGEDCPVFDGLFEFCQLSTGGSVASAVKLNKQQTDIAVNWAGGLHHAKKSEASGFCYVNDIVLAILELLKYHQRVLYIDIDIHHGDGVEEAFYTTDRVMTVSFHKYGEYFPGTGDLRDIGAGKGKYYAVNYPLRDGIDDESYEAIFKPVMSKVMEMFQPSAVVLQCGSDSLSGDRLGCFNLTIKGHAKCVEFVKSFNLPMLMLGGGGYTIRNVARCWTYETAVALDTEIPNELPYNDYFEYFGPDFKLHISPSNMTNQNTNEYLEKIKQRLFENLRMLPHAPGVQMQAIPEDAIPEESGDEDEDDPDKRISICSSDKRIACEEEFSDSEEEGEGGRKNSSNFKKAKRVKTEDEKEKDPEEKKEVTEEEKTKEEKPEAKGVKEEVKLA

Regarding `CN1CCN(C(=O)N(Cc2ccc(C(=O)NO)cc2)c2cccc(-c3ccc4c(c3)OCO4)c2)CC1` [Compound 466, N-(3-(benzo[d][1,3]dioxol-5-yl)phenyl)-N-(4-(hydroxycarbamoyl)benzyl)-4-methylpiperazine-1-carboxamide], the values for the IC50 at HDAC 6 and on HDAC1 were 3 nM and 408 nM, respectively.
The matching figures for `O=C(NO)c1ccc(CN(C(=O)N2CCN(CCO)CC2)c2cccc(-c3ccc4c(c3)OCO4)c2)cc1` [Compound 467, N-(3-(benzo[d][1,3]dioxol-5-yl)phenyl)-N-(4-(hydroxycarbamoyl)benzyl)-4-(2-hydroxyethyl)piperazine-1-carboxamide]: 1 nM and 240 nM.
The matching figures for `O=C(NO)c1ccc(CN(C(=O)N2CCCC2)c2cccc(-c3ccc4c(c3)OCO4)c2)cc1` [Compound 468, N-(3-(benzo[d][1,3]dioxol-5-yl)phenyl)-N-(4-(hydroxycarbamoyl)benzyl)pyrrolidine-1-carboxamide]: 10 nM and 12300 nM.
Taken in the same sequence, the figures for `O=C(NO)c1ccc(CN(C(=O)N2CCC[C@H]2CO)c2cccc(-c3ccc4c(c3)OCO4)c2)cc1` [Compound 469, (S)—N-(3-(benzo[d][1,3]dioxol-5-yl)phenyl)-N-(4-(hydroxycarbamoyl)benzyl)-2-(hydroxymethyl)pyrrolidine-1-carboxamide] were 12 nM and 5340 nM.
Take `O=C(NO)c1ccc(CN(C(=O)N2CCN(C(=O)C3CC3)CC2)c2cccc(-c3ccc4c(c3)OCO4)c2)cc1` [Compound 470, N-(3-(benzo[d][1,3]dioxol-5-yl)phenyl)-4-(cyclopropanecarbonyl)-N-(4-(hydroxycarbamoyl)benzyl)piperazine-1-carboxamide]: the IC50 is 1 nM on HDAC 6 and 635 nM at HDAC1.
Taken in the same sequence, the figures for `O=C(NO)c1ccc(CN(C(=O)N2CCC2)c2cccc(-c3ccc4c(c3)OCO4)c2)cc1` [Compound 471, N-(3-(benzo[d][1,3]dioxol-5-yl)phenyl)-N-(4-(hydroxycarbamoyl)benzyl)azetidine-1-carboxamide] were 14 nM and 1150 nM.
As for `CN1CCN(C(=O)N(Cc2ccc(C(=O)NO)cc2)c2ccc(F)c(Cl)c2)CC1` [Compound 478, N-(3-chloro-4-fluorophenyl)-N-(4-(hydroxycarbamoyl)benzyl)-4-methylpiperazine-1-carboxamide], the IC50 at HDAC 6 was found to be 9 nM; at HDAC1 it was 190 nM.
With `CCN1CCN(C(=O)N(Cc2ccc(C(=O)NO)cc2)c2ccc(F)c(Cl)c2)CC1` [Compound 479, N-(3-chloro-4-fluorophenyl)-4-ethyl-N-(4-(hydroxycarbamoyl)benzyl)piperazine-1-carboxamide], the IC50 was determined as 7 nM at HDAC 6 and 280 nM at HDAC1.
For the molecule `O=C(NO)c1ccc(CN(C(=O)N2CCN(Cc3ccccc3)CC2)c2ccc(F)c(Cl)c2)cc1` [Compound 480, 4-benzyl-N-(3-chloro-4-fluorophenyl)-N-(4-(hydroxycarbamoyl)benzyl)piperazine-1-carboxamide], the IC50 at HDAC 6 was 18 nM; at HDAC1, 1070 nM.
In the case of `COc1ccccc1N1CCN(C(=O)N(Cc2ccc(C(=O)NO)cc2)c2ccc(F)c(Cl)c2)CC1` [Compound 481, N-(3-chloro-4-fluorophenyl)-N-(4-(hydroxycarbamoyl)benzyl)-4-(2-methoxyphenyl)piperazine-1-carboxamide], the IC50 is 15 nM on HDAC 6 and 2080 nM on HDAC1.
As to `O=C(NO)c1ccc(CN(C(=O)N2CCN(c3ccc(F)cc3)CC2)c2ccc(F)c(Cl)c2)cc1` [Compound 482, N-(3-chloro-4-fluorophenyl)-4-(4-fluorophenyl)-N-(4-(hydroxycarbamoyl)benzyl)piperazine-1-carboxamide], the IC50 at HDAC 6 was 1 nM; on HDAC1 it was 680 nM.
Taken in the same sequence, the figures for `O=C(NO)c1ccc(CN(C(=O)N2CCOCC2)c2cccc(C3CCOCC3)c2)cc1` [Compound 483, N-(4-(hydroxycarbamoyl)benzyl)-N-(3-(tetrahydro-2H-pyran-4-yl)phenyl)morpholine-4-carboxamide] were 7 nM and 840 nM.
The matching figures for `COc1cccc(N(Cc2ccc(C(=O)NO)cc2)C(=O)N2CCOCC2)c1` [Compound 484, N-(4-(hydroxycarbamoyl)benzyl)-N-(3-methyoxyphenyl)morpholine-4-carboxamide]: 2 nM and 680 nM.
Taken in the same sequence, the figures for `O=C(NO)c1ccc(CN(C(=O)N2CC(F)(F)C2)c2ccc(C(F)(F)F)cc2)cc1` [Compound 485, 3,3-difluoro-N-(4-(hydroxycarbamoyl)benzyl)-N-(4-(trifluoromethyl)phenyl)azetidine-1-carboxamide] were 8 nM and 860 nM.
On to `O=C(NO)c1ccc(CN(C(=O)N2CCC(O)(c3ccccc3)CC2)c2ccc(C(F)(F)F)cc2)cc1` [Compound 486, 4-hydroxy-N-(4-(hydroxycarbamoyl)benzyl)-4-phenyl-N-(4-(trifluoromethyl)phenyl)piperidine-1-carboxamide], for which the IC50 was found to be 6 nM on HDAC 6 and 1450 nM on HDAC1.
The matching figures for `O=C(NO)c1ccc(CN(C(=O)N2CCOCC2)c2cccc(Br)c2)c(F)c1` [Compound 487, N-(3-bromophenyl)-N-(2-fluoro-4-(hydroxycarbamoyl)benzyl)morpholine-4-carboxamide]: 7 nM and 178 nM.
As for `O=C(NO)c1ccc(CN(C(=O)N2CCC(O)CC2)c2cccc(Br)c2)c(F)c1` [Compound 488, N-(3-bromophenyl)-N-(2-fluoro-4-(hydroxycarbamoyl)benzyl)-4-hydroxypiperidine-1-carboxamide], the IC50 at HDAC 6 came to 0.5 nM; at HDAC1 it was 1170 nM.
Taken in the same sequence, the figures for `CC(C)(C)OC(=O)N1CCC(c2cccc(N(Cc3ccc(C(=O)NO)cc3)C(=O)N3CCOCC3)c2)CC1` [Compound 489, tert-butyl 4-(3-(N-(4-(hydroxycarbamoyl)benzyl)morpholine-4-carboxamido)phenyl)piperidine-1-carboxylate] were 0.5 nM and 1220 nM.
Turning to `CC(=O)N1CCC(c2cccc(N(Cc3ccc(C(=O)NO)cc3)C(=O)N3CCOCC3)c2)CC1` [Compound 490, N-(3-(1-acetylpiperidin-4-yl)phenyl)-N-(4-(hydroxycarbamoyl)benzyl)morpholine-4-carboxamide], the IC50 at HDAC 6 was determined as 19 nM; on HDAC1, 703 nM.
Regarding `CS(=O)(=O)N1CCC(c2cccc(N(Cc3ccc(C(=O)NO)cc3)C(=O)N3CCOCC3)c2)CC1` [Compound 491, N-(4-(hydroxycarbamoyl)benzyl)-N-(3-(1-(methylsulfonyl)piperidin-4-yl)phenyl)morpholine-4-carboxamide], the IC50 at HDAC 6 was found to be 9 nM; on HDAC1, 3220 nM.
In the case of `CC(C)NC(=O)N1CCC(c2cccc(N(Cc3ccc(C(=O)NO)cc3)C(=O)N3CCOCC3)c2)CC1` [Compound 492, N-(4-(hydroxycarbamoyl)benzyl)-N-(3-(1-(isopropylcarbamoyl)piperidin-4-yl)phenyl)morpholine-4-carboxamide], the results for the IC50 at HDAC 6 and at HDAC1 were 2 nM and 1260 nM, respectively.
Taken in the same sequence, the figures for `O=C(NO)c1ccc(CN(C(=O)N2CCOCC2)c2cccc(C3CCNCC3)c2)cc1` [Compound 493, N-(4-(hydroxycarbamoyl)benzyl)-N-(3-(piperidin-4-yl)phenyl)morpholine-4-carboxamide hydrochloride] were 11 nM and 883 nM.
In the case of `CC(=O)N1CCN(C(=O)N(Cc2ccc(C(=O)NO)cc2)c2cccc(C(F)(F)F)c2)CC1` [Compound 494, 4-acetyl-N-(4-(hydroxycarbamoyl)benzyl)-N-(3-(trifluoromethyl)phenyl)piperazine-1-carboxamide], the IC50 at HDAC 6 was found to be 1 nM; at HDAC1 it was 692 nM.
